From patent US20030108964A1, “Caspase-inhibitory-factor(cif)and uses thereof” (priority 2002, published 2003)
Blank lines part the entries; values can stand above or below the compound they belong to.

Legend:
[1] = system: Endogenous Csp-6 in human breast cancer cell line, MCF7; test: Endogenous Csp-6 specific activity in treated MCF7 extract; assay type: cell-based; conditions: MCF7 extract treated 48 hours; for Endogenous Csp-6 Specific Activity: control 6.34 (0.02); for Csp-6 activity remaining (% of control): control 100%
[2] = system: recombinant active caspase-6 (R-Csp-6); test: CIF activity: protein extracts of treated neurons added to recombinant active caspase-6 in vitro (Ac-VEID-AFC); assay type: cell-based, human
Protocol: (§1) Primary cultures of neurons were established from 12-14 week old foetal brains, according to ethical regulations of the Medical Research Council of Canada and approved by McGill University. Institutional Review Board. Briefly, cortical and subcortical brain tissue is minced, dissociated in 0.25% trypsin for 15 minutes at 37° C. Trypsin is inactivated with 10% serum and 0.1 mg/ml deoxyribonuclease I added before triturating to completely dissociate the cells. The mixture is successively passed through 130 μm and 70 μm filters, and cells plated at 3×10^6/ml on poly-L-lysine coated tissue culture dishes or ACLAR™ (33C; 5 mm; Allied Chemical Corp.) coverslips in phenol-free minimal essential media in Earle's balanced salt solution containing 0.225% sodium bicarbonate, 1 mM sodium pyruvate, 2 mM L-glutamine, 0.1% dextrose, 1×antibiotic Pen-Strep (all products from Gibco-BRL) and 5% decomplemented fetal bovine serum (Hyclone).
(§2) All were obtained from Sigma and dissolved as stock solutions in 100% ethanol. Dilutions of 1/1000 was made in culture media immediately before use. The media was changed with fresh solution every 48 hours. Controls received an equivalent amount of ethanol.
(§3) Cycloheximide (Sigma) was made at 1 mg/ml in distilled-water and diluted at 5 and 20 μg/ml in culture media before treatment. To assess the efficiency of cycloheximide as an inhibitor of translation at these concentrations, neurons were labeled with 100 μCi/ml of ^35S-methionine (Easy Tag NEN-DUPONT) for 6 hours in the absence or presence of cycloheximide. Proteins were extracted in NP-40 lysis buffer, immunoprecipitated and separated by 10% polyacrylamide gel electrophoresis. To test the effect of cycloheximide on the neuroprotective effect of 17-β-estradiol, neurons were microinjected with R-Csp-6 and incubated with 10 nM 17-β-estradiol in the absence or presence of cycloheximide for 48 hours. To test the effect of cycloheximide on 17-β-estradiol induction of CIF, neurons were incubated with 10 nM 17-β-estradiol in the absence or presence of cycloheximide for 6 hours.
After treatment, neuron proteins were extracted in caspase lysis buffer (50 mM Hepes pH 7.4, 0.1% CHAPS, 1 mM DTT, 0.1 mM EDTA) for 10 minutes on ice followed by microcentrifugation to remove insoluble material. Protein concentration was determined by bicinchoninic acid (BCA) assay (Pierce). Proteins (10 μg/100 μl assay) were added to 10 ng recombinant active caspase (Pharmingen or BioMol) in caspase assay buffer (20 mM Pipes, 30 mM NaCl, 10 mM DTT, 1 mM EDTA, 0.1% CHAPS, 10% sucrose pH 7.2) and 68.5 μM Ac-VEID-AFC for caspase-6, Ac-DEVD-AFC for caspase-3 and caspase-7, and Ac-IETD-AMC for caspase-8 (BioMol). The caspase-6 activity was measured at 37° C. every 2 minutes for 1 hour to determine the linear range of activity. Based on an AFC or AMC standard curve, the amount of released AFC or AMC was measured and the specific activity of the caspase determined as nmoles released AFC or AMC/pg protein/minute.

R-Csp-6 = R-Csp-6 specific activity in presence of treated MCF7 extract; assay type: cell-based, human; conditions: MCF7 extract treated 48 hours; for R-Csp-6 Specific Activity: control 6.15 (0.7); for R-Csp-6 activity remaining (% of control): control 100%
Protocol: After treatment, neuron proteins were extracted in caspase lysis buffer (50 mM Hepes pH 7.4, 0.1% CHAPS, 1 mM DTT, 0.1 mM EDTA) for 10 minutes on ice followed by microcentrifugation to remove insoluble material. Protein concentration was determined by bicinchoninic acid (BCA) assay (Pierce). […] Based on an AFC or AMC standard curve, the amount of released AFC or AMC was measured and the specific activity of the caspase determined as nmoles released AFC or AMC/pg protein/minute.

[3] = system: R-Csp-6-mediated apoptosis in primary cultures of human neurons; test: TUNEL cell death of primary human neurons microinjected with recombinant active caspase-6; assay type: cell-based; conditions: for effect on 17-β-estradiol neuroprotective effect against caspase-6: 10 nM added to 17-β-estradiol
Protocol: as §1
The cells attach rapidly and establish intricate neuritic networks within 3 days. Fluorodeoxyuridine (FdU) is added at 1 mM to prevent proliferation of dividing cells. Typically, the culture is composed of 90-95% neurons and 5-10% astrocytes that survive in culture for 4-6 weeks. Experiments on neurons and astrocytes were conducted at 10 days of culture.
Glass micropipettes of 1.0 mm OD and 0.5 mm ID thin-walled glass capillaries with microfilaments (Borosilicate with filament MTW100F-4, World Precise Instrument Co.) were pulled with a Flaming/Brown micropipette puller (P-87) with a tip diameter of […]. Recombinant active caspase-6 or caspase-3 (R-Csp-6 and R-Csp-3 from Pharmingen) were prepared in caspase active buffer containing 20 mM piperazine-N,N′-βis-(2-ethanesulfonic acid) (PIPES), 100 mM NaCl, 10 mM dithiothreitol (DTT), 1 mM EDTA, 0.1% 3-[(3-cholamidopropyl)-dimethylammonio]-2-hydroxy-1-propanesulfonic acid (CHAPS), 10% sucrose, pH 7.2. R-Csp-6 was co-injected with Dextran Texas Red (DTR; at 100 μg/ml) (Cedarlane Laboratories Ltd.) as a fluorescent marker to recognize injected neurons. […] Microinjections were done with the Eppendorf Microinjector 5246 and MIS-5000 Burleigh micromanipulator; injection pressure of 100 hPa, compensation pressure of 50 hPa, and injection time of 0.1 s. The injected volume was 1 nl/shot.
Neurons were fixed in fresh 4% paraformaldehyde/4% sucrose in PBS and permeabilized with 0.1% Triton X-100 in 0.1% sodium citrate. Cell death was detected by TUNEL (TdT-mediated dUTP Nick End Labeling) using the Cell Death Kit I (Roche Molecular Biochemicals) as described by the manufacturer. The percentage of neuronal cell death was determined by the ratio of the number of DTR-TUNEL-double-positive neurons over the total number of DTR-positive neurons.
as §2
as §3, with “hours.” for “hours. To test the effect of cycloheximide on 17-β-estradiol induction of CIF, neurons were incubated with 10 nM 17-β-estradiol in the absence or presence of cycloheximide for 6 hours.”

[4] = system: protein translation in neurons; test: 35S-methionine labelling of neurons to assess inhibition of translation; assay type: cell-based, human; conditions: 5-20 μg/ml
Protocol: as §3

[5] = system: caspase-3-mediated astrocytic cell death; test: TUNEL cell death of human astrocytes microinjected with caspase-3; assay type: cell-based; conditions: 10 nM
[6] = system: endogenous neuronal caspase-6; test: Endogenous caspase-6 activity in treated neurons; assay type: cell-based, human; conditions: neurons treated for 48 hours
Protocol: as §1, with “(Hyclone). […] All were obtained from Sigma and dissolved as stock solutions in 100% ethanol. Dilutions of 1/1000 was made in culture media immediately before use. […] Protein concentration was determined by bicinchoninic acid (BCA) assay (Pierce). […] Based on an AFC or AMC standard curve, the amount of released AFC or AMC was measured and the specific activity of the caspase determined as nmoles released AFC or AMC/pg protein/minute.” for “(Hyclone).”

[7] = system: Human astrocytes extracts, CIF activity; test: CIF activity in extracts of treated human astrocytes; assay type: cell-based; conditions: 10 nM, 6 hours
[8] = 10 μM with 10 nM 17-β-estradiol

Compound: C[C@]12CC[C@@H]3c4ccc(O)cc4CC[C@H]3[C@@H]1CC[C@H]2O [17-α-estradiol]
Endogenous Csp-6 Specific Activity ([1]; 10 nM): 7.13 (0.06) pmoles/μg protein/min.
Csp-6 activity remaining (% of control) ([1]; 10 nM): 112%
inhibition of active caspase-6 by extracts from treated neurons ([2]; 1, 10, or 100 nM, neurons treated 6 hours): neither 1, 10, or 100 nM 17-α-estradiol significantly inhibit active caspase-6
R-Csp-6 Specific Activity (R-Csp-6; 10 nM): 7.19 (0.01) nmoles/μg protein/min.
R-Csp-6 activity remaining (% of control) (R-Csp-6; 10 nM): 117%
protection against R-Csp-6 ([3]; 10 nM, 48 hours, 5 pg R-Csp-6/cell): do not protect significantly

effect on 17-β-estradiol induction of CIF ([2]; 10 nM added to 17-β-estradiol): inhibits 17-β-estradiol effect
block of 17-β-estradiol induced CIF activation [2, 8]: efficiently blocked
Compound: CC/C(=C(\c1ccccc1)c1ccc(OCCN(C)C)cc1)c1ccccc1 [tamoxifen]
effect on 17-β-estradiol neuroprotective effect against caspase-6 ([3]; 48 hours): inhibits 17-β-estradiol effect
block of neuroprotective function of 17-β-estradiol against caspase-6 [3, 8]: efficiently blocked

Compound: C[C@@H]1C[C@@H]([C@H](O)CC2CC(=O)NC(=O)C2)C(=O)[C@@H](C)C1 [cycloheximide]
effect on 17-β-estradiol induction of CIF ([2]; 5-20 μg/ml with 10 nM 17-β-estradiol, 6 hours): no effect
protein translation in neurons [4]: greatly inhibit protein translation
effect on 17-β-estradiol-mediated neuroprotection ([3]; 5-20 μg/ml with 10 nM 17-β-estradiol, 48 hours): no effect

Compound: C[C@]12CC[C@@H]3c4ccc(O)cc4CC[C@H]3[C@@H]1CC[C@@H]2O [17-β-estradiol]
prevention of caspase-3 mediated astrocytic cell death [5]: could not prevent
Endogenous Csp-6 Specific Activity ([1]; 1 nM): 4.02 (0.02) pmoles/μg protein/min.
Csp-6 activity remaining (% of control) ([1]; 1 nM): 63%
Endogenous Csp-6 Specific Activity ([1]; 10 nM): 4.84 (0.03) pmoles/μg protein/min.
Csp-6 activity remaining (% of control) ([1]; 10 nM): 76%
Endogenous Csp-6 Specific Activity ([1]; 100 nM): 5.06 (0.01) pmoles/μg protein/min.
Csp-6 activity remaining (% of control) ([1]; 100 nM): 80%
inhibition of recombinant active caspase-6 in vitro by neuronal protein extracts from treated neurons [2]: inhibit recombinant active caspase-6 in vitro
inhibition of the activity of R-Csp-6 by extracts from treated neurons ([2]; neurons treated 6 hours, 1-100 nM, 10 μg protein): 40-60%
time of exposure at which CIF activity is maximal ([2]; time response curve): 1 h
time of exposure to neurons until CIF activity is induced ([2]; time response curve): ≤ 10 min
endogenous caspase-6 activity in treated neurons [6]: inhibits endogenous caspase-6 activity
CIF activation in astrocytes [7]: CIF is not activated in astrocytes
R-Csp-6 Specific Activity (R-Csp-6; 1 nM): 3.82 (0.04) nmoles/μg protein/min.
R-Csp-6 activity remaining (% of control) (R-Csp-6; 1 nM): 62%
R-Csp-6 Specific Activity (R-Csp-6; 10 nM): 3.25 (0.03) nmoles/μg protein/min.
R-Csp-6 activity remaining (% of control) (R-Csp-6; 10 nM): 53%
R-Csp-6 Specific Activity (R-Csp-6; 100 nM): 4.30 (0.1) nmoles/μg protein/min.
R-Csp-6 activity remaining (% of control) (R-Csp-6; 100 nM): 70%
level of apoptosis of microinjected neurons (TUNEL) ([3]; 10 nM, 48 hours, 5 pg R-Csp-6/cell, R-Csp-6 alone 50%): 20%
protection against caspase-6 ([3]; 10 nM, time study, until 8 days): 50%
protection against caspase-6 mediated apoptosis ([3]; 0.01 or 0.1 nM): not 0.01 or 0.1 nM
protection against caspase-6 mediated apoptosis ([3]; 1 to 100 nM): significant protection
exposure time at which neuronal apoptosis is decreased to maximal levels ([3]; hormone washed away, incubated until 48 hours): 10 min

effect on 17-β-estradiol induction of CIF ([2]; 10 nM added to 17-β-estradiol): inhibits 17-β-estradiol induction of CIF
induction of CIF in neurons ([2]; 10 nM, alone): Neither DES nor EE induce CIF
Compound: CC/C(=C(/CC)c1ccc(O)cc1)c1ccc(O)cc1 [DES, diethylstilbesterol]
effect on 17-β-estradiol neuroprotective effect against caspase-6 ([3]; 48 hours): inhibits
induction of neuroprotection in neurons ([3]; 10 nM, alone, 48 hours): nor induce neuroprotection
